# Target: T1, human GLUT1 (Homo sapiens, UniProt P11166)
# T1 construct: expressed in transfected cells
# T1 sequence (P11166 1-492): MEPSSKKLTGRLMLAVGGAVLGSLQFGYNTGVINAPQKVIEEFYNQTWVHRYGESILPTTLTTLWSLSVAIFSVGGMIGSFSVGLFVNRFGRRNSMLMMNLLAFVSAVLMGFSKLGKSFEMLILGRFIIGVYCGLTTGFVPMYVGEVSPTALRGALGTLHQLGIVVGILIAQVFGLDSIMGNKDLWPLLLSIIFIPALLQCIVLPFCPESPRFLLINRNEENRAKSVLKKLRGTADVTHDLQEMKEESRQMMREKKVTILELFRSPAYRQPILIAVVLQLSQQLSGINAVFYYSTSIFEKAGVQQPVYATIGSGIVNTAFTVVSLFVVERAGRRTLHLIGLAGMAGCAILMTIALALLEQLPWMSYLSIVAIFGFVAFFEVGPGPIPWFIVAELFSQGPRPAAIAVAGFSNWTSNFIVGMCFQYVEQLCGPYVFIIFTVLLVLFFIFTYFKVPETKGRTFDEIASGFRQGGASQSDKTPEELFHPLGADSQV
# Assay: [3H]-deoxy-D-glucose uptake assay, GLUT1
# Type: cell-based
# Conditions: [3H]-deoxy-D-glucose uptake in HEK293 cells stably expressing human GLUT1
# Description: HEK293 cells were engineered to stably express either human GLUT1, GLUT2, GLUt3 or GLUT4 by transfection with the pReceiver-Lv105 plasmid, containing either hGLUT1, hGLUT2, hGLUT3, or hGLUT4 gene constructs with lipofectamine 2000, hGLUT1- hGLUT2- hGLUT3- or hGLUT4-overexpressing polyclonal populations were isolated under purinomycin selective pressure (1 μg/ml) and maintained in Dulbecco's modified Eagle's medium supplemented with 1 μg/ml purinomycin+10% foetal bovine serum (FBS).
# 60,000 cells per well were seeded overnight into poly-D-lysine coasted 96-well plates. […] 90 μl of test compounds were added in glucose-free uptake buffer and cells were incubated at 37° C. for 30 min.
# Cells were then washed twice with ice-cold PBS and 100 μl of Microscint-20 was added per well. Glucose uptake was quantified with a scintillation counter. The half maximal inhibitory concentration (IC50) (a measure of the effectiveness of the test compound in inhibiting glucose uptake) was determined.
row,GLUT1 pIC50,Compound
1,++ (pIC50 5.00-5.99),Clc1ccc(-c2nc3ccc(-c4ccccc4)cn3c2CN2CCOCC2)cc1 [Compound 1]
2,++ (pIC50 5.00-5.99),Clc1ccc(-c2nc3ccccn3c2CN2CCOCC2)cc1 [Compound 3]
3,+− (pIC50 < 4.00),Cc1ccc2nc(-c3ccccc3)c(CN3CCSCC3)n2c1 [Compound 6]
4,++ (pIC50 5.00-5.99),CCS(=O)(=O)N1CCN(Cc2c(-c3cccc([N+](=O)[O-])c3)nc3ccc(-c4ccccc4)cn23)CC1 [Compound 9]
5,+ (pIC50 4.00-4.99),Cc1ccc(-c2cn3cc(-c4ccccc4)ccc3n2)cc1 [Compound 11]
6,+ (pIC50 4.00-4.99),O=[N+]([O-])c1ccc(-c2nc3ccc(-c4ccccc4)cn3c2CN2CCNCC2)cc1 [Compound 12]
7,+++ (pIC50 ≧ 6.00),O=C(c1cccs1)N1CCN(Cc2c(-c3ccc([N+](=O)[O-])cc3)nc3ccc(-c4ccccc4)cn23)CC1 [Compound 13]
8,++ (pIC50 5.00-5.99),O=C(c1ccco1)N1CCN(Cc2c(-c3cccc([N+](=O)[O-])c3)nc3ccc(-c4ccccc4)cn23)CC1 [Compound 15]
9,++ (pIC50 5.00-5.99),COc1cccc(-c2nc3ccc(-c4ccccc4)cn3c2CN2CCN(C(=O)C3CCC3)CC2)c1 [Compound 16]
10,+++ (pIC50 ≧ 6.00),O=C(COCc1ccccc1)N1CCN(Cc2c(-c3ccc(Cl)cc3)nc3ccc(-c4ccccc4)cn23)CC1 [Compound 18]
11,+++ (pIC50 ≧ 6.00),Cc1cccc(C)c1NC(=O)N1CCN(Cc2c(-c3ccc(Cl)cc3)nc3ccc(-c4ccccc4)cn23)CC1 [Compound 19]
12,+++ (pIC50 ≧ 6.00),COc1cccc(-c2nc3ccc(-c4ccccc4)cn3c2CN2CCN(C(=O)c3cccs3)CC2)c1 [Compound 20]
13,++ (pIC50 5.00-5.99),O=C(c1cccc([N+](=O)[O-])c1)N1CCN(Cc2c(-c3ccc(Cl)cc3)nc3ccc(-c4ccccc4)cn23)CC1 [Compound 21]
14,+++ (pIC50 ≧ 6.00),O=C(C1CCCC1)N1CCN(Cc2c(-c3ccc([N+](=O)[O-])cc3)nc3ccc(-c4ccccc4)cn23)CC1 [Compound 24]
15,++ (pIC50 5.00-5.99),CCS(=O)(=O)N1CCN(Cc2c(-c3cccc(OC)c3)nc3ccc(-c4ccccc4)cn23)CC1 [Compound 25]
16,++ (pIC50 5.00-5.99),COc1cccc(-c2nc3ccc(-c4ccccc4)cn3c2CN2CCN(C(=O)C3CC3)CC2)c1 [Compound 26]
17,+ (pIC50 4.00-4.99),CC1CN(Cc2c(-c3ccccc3)nc3ccccn23)CC(C)O1 (stereo not drawn) [Compound 29]
18,++ (pIC50 5.00-5.99),O=C(C1CCC1)N1CCN(Cc2c(-c3cccc([N+](=O)[O-])c3)nc3ccc(-c4ccccc4)cn23)CC1 [Compound 33]
19,++ (pIC50 5.00-5.99),COc1cccc(-c2nc3ccc(-c4ccccc4)cn3c2CN2CCN(C(=O)CC(C)C)CC2)c1 [Compound 34]
20,+++ (pIC50 ≧ 6.00),COc1cccc(-c2nc3ccc(-c4ccccc4)cn3c2CN2CCN(C(=O)C3CCCC3)CC2)c1 [Compound 35]
21,+++ (pIC50 ≧ 6.00),COc1ccc(C(=O)N2CCN(Cc3c(-c4ccc(OC)cc4)nc4ccc(-c5ccccc5)cn34)CC2)cc1 [Compound 36]
22,++ (pIC50 5.00-5.99),CC(C)(C)CC(=O)N1CCN(Cc2c(-c3ccc([N+](=O)[O-])cc3)nc3ccc(-c4ccccc4)cn23)CC1 [Compound 38]
23,+ (pIC50 4.00-4.99),COc1cccc(-c2nc3ccc(-c4ccccc4)cn3c2CN2CCN(C(=O)c3ccccc3Cl)CC2)c1 [Compound 39]
24,++ (pIC50 5.00-5.99),Cc1ccc(C(=O)N2CCN(Cc3c(-c4ccc(F)cc4)nc4ccc(-c5ccccc5)cn34)CC2)cc1 [Compound 40]
25,++ (pIC50 5.00-5.99),CC(C)(C)NC(=O)N1CCN(Cc2c(-c3ccc(Cl)cc3)nc3ccc(-c4ccccc4)cn23)CC1 [Compound 41]

row,GLUT1 pIC50,Compound
1,+ (pIC50 4.00-4.99),CC(C)(C)c1ccc(C(=O)N2CCN(Cc3c(-c4ccc(Cl)cc4)nc4ccc(-c5ccccc5)cn34)CC2)cc1 [Compound 42]
2,+++ (pIC50 ≧ 6.00),CC(C)CC(=O)N1CCN(Cc2c(-c3ccc(Cl)cc3)nc3ccc(-c4ccccc4)cn23)CC1 [Compound 43]
3,+++ (pIC50 ≧ 6.00),O=C(c1ccccc1)N1CCN(Cc2c(-c3ccc(Cl)cc3)nc3ccc(-c4ccccc4)cn23)CC1 [Compound 44]
4,+++ (pIC50 ≧ 6.00),O=C(c1ccccc1F)N1CCN(Cc2c(-c3ccc(Cl)cc3)nc3ccc(-c4ccccc4)cn23)CC1 [Compound 45]
5,++ (pIC50 5.00-5.99),CC(C)(C)CC(=O)N1CCN(Cc2c(-c3ccc(Cl)cc3)nc3ccc(-c4ccccc4)cn23)CC1 [Compound 46]
6,+++ (pIC50 ≧ 6.00),O=C(C1CCCC1)N1CCN(Cc2c(-c3ccc(Cl)cc3)nc3ccc(-c4ccccc4)cn23)CC1 [Compound 47]
7,+++ (pIC50 ≧ 6.00),COc1cccc(-c2nc3ccc(-c4ccccc4)cn3c2CN2CCN(C(=O)c3ccc(F)cc3)CC2)c1 [Compound 49]
8,+++ (pIC50 ≧ 6.00),Cc1ccc(-c2nc3ccc(-c4ccccc4)cn3c2CN2CCN(C(=O)c3ccc(F)cc3)CC2)cc1 [Compound 50]
9,++ (pIC50 5.00-5.99),COc1cccc(-c2nc3ccc(-c4ccccc4)cn3c2CN2CCN(C(=O)c3ccco3)CC2)c1 [Compound 51]
10,+++ (pIC50 ≧ 6.00),COc1cccc(-c2nc3ccc(-c4ccccc4)cn3c2CN2CCN(C(=O)c3cccc(F)c3)CC2)c1 [Compound 52]
11,+++ (pIC50 ≧ 6.00),O=C(c1ccc(F)cc1)N1CCN(Cc2c(-c3ccc(Cl)cc3)nc3ccc(-c4ccccc4)cn23)CC1 [Compound 53]
12,++ (pIC50 5.00-5.99),COc1cccc(-c2nc3ccc(-c4ccccc4)cn3c2CN2CCN(C(=O)C(C)C)CC2)c1 [Compound 54]
13,++ (pIC50 5.00-5.99),CC(C)C(=O)N1CCN(Cc2c(-c3cccc([N+](=O)[O-])c3)nc3ccc(-c4ccccc4)cn23)CC1 [Compound 55]
14,++ (pIC50 5.00-5.99),O=C(C1CC1)N1CCN(Cc2c(-c3cccc([N+](=O)[O-])c3)nc3ccc(-c4ccccc4)cn23)CC1 [Compound 56]
15,++ (pIC50 5.00-5.99),COCC(=O)N1CCN(Cc2c(-c3cccc(OC)c3)nc3ccc(-c4ccccc4)cn23)CC1 [Compound 57]
16,+ (pIC50 4.00-4.99),CC(C)(C)CC(=O)N1CCN(Cc2c(-c3cccc([N+](=O)[O-])c3)nc3ccc(-c4ccccc4)cn23)CC1 [Compound 58]
17,++ (pIC50 5.00-5.99),CC(=O)N1CCN(Cc2c(-c3cccc([N+](=O)[O-])c3)nc3ccc(-c4ccccc4)cn23)CC1 [Compound 59]
18,+ (pIC50 4.00-4.99),CC(C)CC(=O)N1CCN(Cc2c(-c3cccc([N+](=O)[O-])c3)nc3ccc(-c4ccccc4)cn23)CC1 [Compound 60]
19,+++ (pIC50 ≧ 6.00),CC(=O)N1CCN(Cc2c(-c3ccc(Cl)cc3)nc3ccc(-c4ccccc4)cn23)CC1 [Compound 61]
20,+++ (pIC50 ≧ 6.00),CCC(=O)N1CCN(Cc2c(-c3ccc(Cl)cc3)nc3ccc(-c4ccccc4)cn23)CC1 [Compound 62]
21,+ (pIC50 4.00-4.99),O=C(c1ccccc1Cl)N1CCN(Cc2c(-c3ccc(Cl)cc3)nc3ccc(-c4ccccc4)cn23)CC1 [Compound 64]
22,++ (pIC50 5.00-5.99),COc1cccc(-c2nc3ccc(-c4ccccc4)cn3c2CN2CCN(C(=O)CC(C)(C)C)CC2)c1 [Compound 65]
23,++ (pIC50 5.00-5.99),O=C(C1CCCC1)N1CCN(Cc2c(-c3cccc([N+](=O)[O-])c3)nc3ccc(-c4ccccc4)cn23)CC1 [Compound 66]
24,+++ (pIC50 ≧ 6.00),Cc1ccc(-c2nc3ccc(-c4ccccc4)cn3c2CN2CCN(C(=O)c3cccs3)CC2)cc1 [Compound 67]

row,Compound,GLUT1 pIC50
1,Clc1ccc(-c2nc3ccc(Cl)cn3c2CN2CCSCC2)cc1 [Compound 4],+ (pIC50 4.00-4.99)
2,Clc1ccc(-c2nc3ccc(Cl)cn3c2CN2CCCCC2)cc1 [Compound 5],+ (pIC50 4.00-4.99)
3,Cc1ccc2nc(-c3ccccc3)c(CN3CCN(c4ccccc4F)CC3)n2c1 [Compound 7],+ (pIC50 4.00-4.99)
4,COCCNC(=O)CCc1c(-c2ccc([N+](=O)[O-])cc2)nc2ccc(-c3ccccc3)cn12 [Compound 17],+− (pIC50 < 4.00)
5,Clc1ccc(-c2nc3ccc(Cl)cn3c2CN2CCOCC2)cc1 [Compound 27],++ (pIC50 5.00-5.99)
6,CC1CN(Cc2c(-c3ccccc3)nc3ccc(Cl)cn23)CC(C)O1 (stereo not drawn) [Compound 28],++ (pIC50 5.00-5.99)
7,Cc1ccc2nc(-c3ccccc3)c(CN3CCNC(=O)C3)n2c1 [Compound 30],+− (pIC50 < 4.00)
8,O=C(Cc1ccc(F)cc1)N1CCN(Cc2c(-c3ccc(Cl)cc3)nc3ccc(-c4ccccc4)cn23)CC1 [Compound 63],++ (pIC50 5.00-5.99)
